Data reported in article PMC4065102 (PLoS ONE, 2014).
Entries after “also recorded” stand apart in the source; their conditions may differ. Bridges are numbered along the chain shown (N, C = ends). Where no end group is shown, it is not given here.

Columns and labels:
[1] = tested on: SNU-16 stomach tumor xenografts; experiment: In vivo NIR fluorescence imaging of tumor apoptosis; parameters: species or system mice; conditions: for fluorescence intensity at tumor site in cisplatin plus cetuximab group compared to cisplatin alone and cetuximab alone / fluorescence intensity at tumor site in treated groups compared to untreated control group: FPR675-labeled peptide 800 nmol/kg i.v., imaging at 90 min; for fluorescence intensity at tumor site in cisplatin plus cetuximab group compared to cisplatin alone and cetuximab alone: after first and second round, linear: p<0.05/p<0.05 vs cisplatin, p<0.01/not significant vs cetuximab, cyclic: p<0.01/p<0.01 vs cisplatin, p<0.001/p<0.01 vs cetuximab; for fluorescence intensity at tumor site in treated groups compared to untreated control group: groups treated with cisplatin, cetuximab, cisplatin plus cetuximab, after first or second round of treatment, n = 3; for background fluorescence signals in other organs, including the liver and lung: whole body NIR fluorescence images, 90 min after i.v. FPR675-labeled peptide
Description: Eight-week old female athymic (nu/nu) Balb/c mice were purchased from Orient laboratories (Seongnam, Korea) and were housed under specific-pathogen-free conditions with laboratory chow and water ad libitum. Stomach tumor xenografts were established by subcutaneously injecting 1 x 10^7 SNU-16 cells in 100 µl saline into the right flank. Tumors were allowed to reach 50–60 mm^3 of volume before randomization and initiation of treatment. […] Changes in tumor size were measured over three weeks. Diameters of tumor were measured with automatic caliper. Tumor volumes were calculated using the formula: volume = (length x width x height)/2, where length, width, and height means the longest dimension, shorter dimension parallel to the mouse body, and diameter of tumor perpendicular to the length and width, respectively. Tumor weights were measured after isolation of tumor mass.
In vivo NIR fluorescence imaging was performed after the first and second round of treatment. Each treatment group (n = 6) was divided into two subgroups (n = 3) for imaging with linear and cyclic form of ApoPep-1, respectively. Linear and cyclic form of FPR675–labeled ApoPep-1 (1.45 mg/kg and 1.54 mg/kg, respectively; equivalent to 800 nmol/kg for each peptide) was injected through the tail vein into mice. At 90 min after administration, mice were anesthetized and subjected to imaging. NIR fluorescence (typically, between 650 and 1100 nm) is favored for in vivo optical imaging because of its low tissue absorption and deep tissue penetration properties. The excitation/emission wavelength of the FPR675 dye used in this study was 675/698 nm. Images were taken using the eXplore Optix optical imaging system (ART Inc., Montreal, Canada). […] The acquisition time for a whole-body scanning was 15 min per mouse. Fluorescence intensity at region of interest (ROI) was measured using a analysis software provided by the manufacturer (ART Inc.).
Figure 2 Monitoring of tumor response by in vivo imaging of apoptosis. […] After the first and second round of treatment, linear or cyclic form of FPR675 NIR fluorescence dye-labeled ApoPep-1 was intravenously injected into mice. In vivo NIR fluorescence images were taken at 90 min after administration. (A) (B) Quantification of NIR fluorescence signal intensity of the region of interest (ROI) in groups injected with linear and cyclic ApoPep-1. Bars represent the signal intensity at ROI obtained from three individual mice (mean ± S.D.). Asterisks represent statistical significance compared to PBS. Asterisks on brackets represent significance in difference between the two groups. * p<0.05, ** p<0.01, and *** p<0.001 by one-way ANOVA (n = 3 per group). (C) (D) Representative NIR fluorescence images by the uptake of linear and cyclic ApoPep-1 to tumor were shown. Scale bars represent normalized fluorescence intensity. Circles represent the ROI.

[2] = Stability of peptides in the serum; type: in vitro ADME, mice; conditions: mouse serum, 100 µg peptide in 50 µl PBS + 50 µl filtered serum, 37°C, up to 24 h, C18 reverse phase FPLC, absorbance 215 nm, peak identity by MALDI-TOF MS
Description: Peptide stability in the serum was examined as previously described. Blood from mice was collected and allowed to clot, and then serum was obtained by centrifugation at 4°C twice followed by filtration (0.22 µm pore). Peptide (100 µg in 50 µl of PBS) was incubated with 50 µl of filtered serum at 37°C for the indicated time period. The incubated samples were diluted 100-fold and fractionated by C18 reverse phase FPLC with linear gradient of acetonitrile (Vydac protein and peptide C18, 0.1% trifluoroacetate in water for equilibration, and 0.1% trifluoroacetate in acetonitrile for elution). To confirm the identity of the peak from the profiles of C18 reverse phase FPLC, each peak was collected, vacuum dried, and analyzed by mass spectrometry (MS) using an MALDI-TOF mass spectrometer (Life Technologies, Carlsbad, CA).
Figure 5 Stability of linear and cyclic ApoPep-1 in the serum. Linear and cyclic ApoPep-1 peptides were incubated with mouse serum at 37°C for the indicated time periods. (A) (B) Linear and cyclic form of ApoPpep-1 samples and mouse serum were fractionated by C18 reverse-phase FPLC. Y axis represents the absorbance unit at 215 nm. Each peptide peak was indicated by an arrow and separable from serum peaks. (C) (D) MS spectrum of the linear and cyclic peptide peak collected from 24 h FPLC fraction and synthetic linear and cyclic ApoPep-1.

[3] = tested on: SNU-16 stomach tumor xenografts; experiment: Anti-tumor treatment of mice and tumor size/weight measurement; type: in vivo; conditions: 3 weeks after treatment; cisplatin 5 mg/kg i.p. once per week x2, cetuximab 1.5 mg/kg i.p. twice per week x4; p<0.05, p<0.05, p<0.001 (linear ApoPep-1 group); p<0.05, p<0.01, p<0.001 (cyclic group)
Description: At 3 weeks after treatment (endpoint of experiments), tumor volumes were measured and tumors were isolated for the weight measurement.
SNU-16 stomach tumor-bearing mice that were analyzed for imaging signals after the first and second round of treatment were maintained for the measurement of tumor size. […] PBS, phosphate-buffered saline; CPT, cisplatin; CET, cetuximab; CPT+CET, cisplatin plus cetuximab.

[4] = tested on: SNU16 human stomach cancer cell line; experiment: In vitro binding of peptides to apoptotic cells (flow cytometry); type: cell-based; conditions: 10 µM FITC-conjugated peptide 4°C 1 h, or Alexa488-annexin V 15 min RT
Description: SNU16 human stomach cancer cell line was purchased from KCLB (Seoul, Korea). […] After treatment, cells were incubated with 10 µM of fluorescein isothiocyanate (FITC)-conjugated linear or cyclic form of ApoPep-1 at 4°C for 1 h. As control, cells were stained with Alexa488-conjugated annexin V (Life technologies, Carlsbad, CA) for 15 min at RT. Percentages of fluorescent (peptide-bound or annexin V-bound) cells were measured by flow cytometry.
Figure 1 In vitro detection of apoptosis. […] Cells were harvested and incubated with FITC-labeled ApoPep-1 at 4°C for 1 h or with annexin V at room temperature for 15 min. Data represent percentages of apoptotic cells as measured by flow cytometry. (A-C) Percentages of apoptotic cells detected by linear form of ApoPep-1, cyclic form of ApoPep-1, and annexin V, respectively. PBS, phosphate-buffered saline; CPT, cisplatin; CET, cetuximab; CPT+CET, cisplatin plus cetuximab.

## CQRPPR [linear ApoPep-1, Linear (CQRPPR) form of ApoPep-1, histone H1-targeting peptide; used FITC-conjugated or FPR675-labeled]
[1]
  fluorescence intensity at tumor site in cisplatin plus cetuximab group compared to cisplatin alone and cetuximab alone: higher
  fluorescence intensity at tumor site in treated groups compared to untreated control group: significantly higher
  background fluorescence signals in other organs, including the liver and lung: Little background fluorescence signals
[2]; listed as linear form of ApoPep-1
  amount of peptide remaining in the serum, as calculated by peak area: not significantly changed up to 24 h; also recorded: stable in the presence of serum until 24 h

## N.N.[Cl][Pt][Cl] [cisplatin]
[3]
  tumor volumes compared to untreated control: reduced tumor volumes

## CQRPPRC (disulfide 1-7 (inferred)) [cyclic ApoPep-1, cyclic (CQRPPRC, disulfide bonding at amino and carboxy termini) form of ApoPep-1; used FITC-conjugated or FPR675-labeled]
[1]
  fluorescence intensity at tumor site in cisplatin plus cetuximab group compared to cisplatin alone and cetuximab alone: remarkably higher
  fluorescence intensity at tumor site in treated groups compared to untreated control group: significantly higher
  background fluorescence signals in other organs, including the liver and lung: Little background fluorescence signals
[2]; listed as cyclic form of ApoPep-1
  amount of peptide remaining in the serum, as calculated by peak area: not significantly changed up to 24 h; also recorded: stable in the presence of serum until 24 h

B1: annexin V: Alexa488-conjugated annexin V, apoptosis probe that binds to phosphatidylserine (protein, UniProt P08758 2-320, looked up)
Annexin A5: AQVLRGTVTDFPGFDERADAETLRKAMKGLGTDEESILTLLTSRSNAQRQEISAAFKTLFGRDLLDDLKSELTGKFEKLIVALMKPSRLYDAYELKHALKGAGTNEKVLTEIIASRTPEELRAIKQVYEEEYGSSLEDDVVGDTSGYYQRMLVVLLQANRDPDAGIDEAQVEQDAQALFQAGELKWGTDEEKFITIFGTRSVSHLRKVFDKYMTISGFQIEETIDRETSGNLEQLLLAVVKSIRSIPAYLAETLYYAMKGAGTDDHTLIRVMVSRSEIDLFNIRKEFRKNFATSLYSMIKGDTSGDYKKALLLLCGEDD
modifications: Alexa488 conjugate
[4]; cetuximab 200 µg/ml 24 h
  percentages of apoptotic cells detected by the probe after treatment with cetuximab: ~40%
[4]; cisplatin 300 ng/ml 24 h
  percentages of apoptotic cells detected by the probe after treatment with cisplatin: approximately 43%
[4]; cisplatin 300 ng/ml plus cetuximab 200 µg/ml 24 h
  percentages of apoptotic cells detected by the probe after treatment with cisplatin plus cetuximab: ~45%
